From patent publication US9895381B2, “Vitamin D receptor agonists to treat diseases involving CXCL12 activity” (Salk Institute for Biological Studies, priority 2013, dated 2018)
In brackets after ≈: the same amount, converted by molar mass.

How the values were obtained:
[1] = cited from earlier work
[2] = system: primary mouse PSCs; experiment: RNA-Seq transcriptome of PSCs with or without VDR ligand; type: cell-based
Procedure: Pancreatic stellate cells (PSCs) were isolated from pancreata of wild-type C57BL6/J mice at 8 weeks of age by a modification of the method described by Apte et al. (Apte et al., 1998). Briefly, pancreatic tissue was minced with scissors and digested with 0.02% Pronase (Roche, Indianapolis, Ind.), 0.05% Collagenase P (Roche), and 0.1% DNase (Roche) in Gey's balanced salt solution (GBSS; Sigma Aldrich, St. Louis, Mo.) at 37° C. for […] Digested tissue was then filtered through a 100 μm nylon mesh. Cells were washed once with GBSS, pelleted, and resuspended in 9.5 ml GBSS containing 0.3% bovine serum albumin (BSA) and 8 ml 28.7% Nycodenz solution (Sigma Aldrich; approximate density of the solution is 1.070). The cell suspension was layered beneath GBSS containing 0.3% BSA, and centrifuged at 1400×g for 20 min at 4° C. The cells of interest were harvested from the interface of the Nycodenz solution at the bottom and the aqueous solution at the top. Isolated PSCs were washed with GBSS and resuspended in DMEM (Invitrogen) containing 10% characterized FBS (HyClone) and antibiotics (penicillin 100 U/ml and streptomycin 100 μg/ml, Invitrogen). Cells were maintained at 37° C. in a humidified atmosphere of 7% CO2. After reaching 80% confluence, cells were briefly trypsinized (0.25% Trypsin-EDTA, Invitrogen) and subcultured. Total RNA from human and mouse PSCs was isolated using Trizol (Invitrogen) and the RNeasy mini kit with on-column DNase digestion (Qiagen) according to the manufacturers' instructions. Biological quadruplicates were used for human samples, and biological triplicates used for mouse samples. For transcriptome studies with VDR activation, PSCs were treated with vehicle (DMSO) or 100 nM calcipotriol (Tocris) and harvested at the indicated time points. Sequencing libraries were prepared from 100-500 ng total RNA using the TruSeq RNA Sample Preparation Kit v2 (Illumina) according to the manufacturer's protocol. The Gene Expression Omnibus accession number for the RNA-Seq data is GSE43770. Briefly, mRNA was purified, fragmented, and used for first-, then second-strand cDNA synthesis followed by adenylation of 3′ ends. Samples were ligated to unique adapters and subject to PCR amplification. Libraries were then validated using the 2100 BioAnalyzer (Agilent), normalized, and pooled for sequencing. Human normal and cancer-associated PSCs were sequenced on the Illumina GAII platform with a 41 bp read length, while mouse PSCs and human MiaPaCa-2 cells were sequenced on the Illumina HiSeq 2000 using bar-coded multiplexing and a 51 bp read length. Read alignment and junction mapping was accomplished using TopHat2 v2.0.4 using a 25 bp 5′ segment seed for initial mapping followed by differential gene expression analysis using Cuffdiff v2.0.2 to map reads to the reference genome annotation, NCBI mouse build 37.2 and human build 37.2 (Trapnell et al., 2012). Median sequencing read yield per replicate sample was 49.2M for MiaPaCa-2 cells, 25.4M for mouse PSCs and 53.8M for human PSCs. Data were expressed as fragments per kilobase of exon per million fragments mapped (FPKM). Volcano plots were generated from Cuffdiff output using CummeRbund v2.0.0 (Trapnell et al., 2012).

[3] = system: wild type mice; experiment: Cerulein-induced acute pancreatitis model; type: in vivo, mouse; conditions: cerulein with daily 40 μg/kg calcipotriol
Procedure: Tissues were embedded in O.C.T. and frozen sections were fixed in ice-cold methanol at −20° C. for 20 min. Sections were blocked in PBS+0.2% BSA+0.05% Triton X-100 (blocking solution) for 1 h at room temperature. Primary antibody dilutions in blocking solution were as follows: anti-phospho-STAT3(Tyr705), 1:100 (Cell Signaling Technology); anti-Collagen I, 1:500 (Abcam), anti-GFAP, 1:100 (Abcam); anti-CD45, 1:100 (BD Pharmingen). Primary antibody incubations were performed in a humidified chamber at 4° C. overnight. Sections were washed 3 times with PBS+0.05% Triton X-100, then incubated in secondary antibodies for 1 h at room temperature, protected from light. Secondary antibodies used included Alexa Fluor 594 goat anti-rabbit IgG, Alexa Fluor 488 goat anti-rabbit IgG, Alexa Fluor 594 goat anti-rat IgG, and Alexa Fluor 488 goat anti-mouse IgG (Molecular Probes) and were used at 1:250 in blocking solution. […] Fluorescence was visualized on a Leica DM5000B fluorescent microscope and quantified using ImageJ. […] Cerulein injections were administered as 6 hourly injections 2 times per week for 12 weeks and analyzed 1 week after final cerulein injection, adapted from previous studies (Sah et al., 2013; Treiber et al., 2011; Yoo et al., 2005). […] Images were obtained and quantification of Sirius Red-positive area performed using Nuance 3.0.1.2 software. […]

[4] = system: hPSC cell line; experiment: Chromatin immunoprecipitation for VDR and SMAD3; type: cell-based, human; conditions: 100 nM Cal 16 h pretreatment, 1 ng/ml TGFβ 4 h
Procedure: The hPSC cell line was utilized for chromatin immunoprecipitation, which was described previously (Barish et al., 2010). Briefly, cells were fixed in 1% formaldehyde, and nuclei were isolated and lysed in buffer containing 1% SDS, 10 mM EDTA, 50 mM Tris-HCl pH 8.0, and protease inhibitors, and sheared with a Diagenode Bioruptor to chromatin fragment sizes of 200-1000 base pairs. Chromatin was immunoprecipitated with antibodies to VDR (C-20, Santa Cruz Biotechnology), SMAD3 (Abcam), or rabbit IgG (Santa Cruz Biotechnology).

C=C1/C(=C\C=C2/CCC[C@]3(C)[C@@H]([C@H](C)/C=C/[C@@H](O)C4CC4)CC[C@@H]23)C[C@@H](O)C[C@@H]1O [Cal, 1α,24-(OH)2-24-cyclopropyl-D3]
solubility in DMSO ([1]; DMSO): 100 mM (≈ 41.3 mg/mL)
solubility in ethanol ([1]; ethanol): 100 mM (≈ 41.3 mg/mL)
effect on activation and cancer signatures in PSCs [2]: inhibition of the activation and cancer signatures
genes with significantly decreased expression ([2]; activated PSCs): 1616 genes
genes with significantly increased expression ([2]; activated PSCs): 664 genes
genes with significantly decreased expression ([2]; pre-activated PSCs): 431 genes
genes with significantly increased expression ([2]; pre-activated PSCs): 307 genes
activation-associated changes in PSC gene expression [3]: impaired activation-associated changes in PSC gene expression
leukocyte infiltration and fibrosis [3]: reduced leukocyte infiltration and fibrosis
SMAD3 binding in promoter regions of fibrogenic genes (HAS2, COL1A1) [4]: decreasing SMAD3 binding
VDR binding in promoter regions of fibrogenic genes (HAS2, COL1A1) [4]: increased VDR binding
